13 compounds from patent US5532267A, “Amidinonaphthyl furancarboxylate derivatives and acid addition salts therof” (Torii & Co., Ltd., priority 1992, dated 1996) can be followed below.

Holding throughout (type): biochemical
For one test, the system named is kallikrein. Kind of test: anti-kallikrein activity, hydrolysis of TAME (tosylarginine methyl ester). The following applies: for Kal: percentage inhibition: at a concentration of 1 × 10^-5 M; for IC50: hydrolysis of TAME, read-out: Kal: molar concentration inhibiting 50% of enzyme activity (IC50). On the procedure:
(§1) The values in Table 1 represent molar concentrations (IC50) of test compounds which inhibit 50% of the activity of each enzyme to hydrolyze TAME (tosylarginine methyl ester). The anti-trypsin, anti-plasmin, anti-kallikrein and anti-thrombin activities were determined according to the method of Muramatsu et al. (J. Biochem. (1965), volume 58, page 214).

Another test has as its target T1, trypsin (Bos taurus, UniProt P00760).
T1 sequence (P00760 24-246): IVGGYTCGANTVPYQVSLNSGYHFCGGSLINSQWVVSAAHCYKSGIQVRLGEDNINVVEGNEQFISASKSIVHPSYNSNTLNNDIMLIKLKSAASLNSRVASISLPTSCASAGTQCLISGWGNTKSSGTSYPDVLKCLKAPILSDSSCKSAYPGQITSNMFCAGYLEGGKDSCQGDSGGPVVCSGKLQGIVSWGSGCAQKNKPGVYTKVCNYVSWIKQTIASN
Description: anti-trypsin activity, hydrolysis of TAME (tosylarginine methyl ester).

Another test addresses thrombin (Homo sapiens, UniProt P00734). Kind of test: anti-thrombin activity, hydrolysis of TAME (tosylarginine methyl ester). As to conditions: for inhibition at 10 µM: at a concentration of 1 × 10^-5 M, read-out: Thr: percentage inhibition; for IC50: hydrolysis of TAME, read-out: Thr: molar concentration inhibiting 50% of enzyme activity (IC50). How it is done: as §1
For the next test, the target named is T2, C1r (Homo sapiens, UniProt P00736).
T2 sequence (P00736 18-705): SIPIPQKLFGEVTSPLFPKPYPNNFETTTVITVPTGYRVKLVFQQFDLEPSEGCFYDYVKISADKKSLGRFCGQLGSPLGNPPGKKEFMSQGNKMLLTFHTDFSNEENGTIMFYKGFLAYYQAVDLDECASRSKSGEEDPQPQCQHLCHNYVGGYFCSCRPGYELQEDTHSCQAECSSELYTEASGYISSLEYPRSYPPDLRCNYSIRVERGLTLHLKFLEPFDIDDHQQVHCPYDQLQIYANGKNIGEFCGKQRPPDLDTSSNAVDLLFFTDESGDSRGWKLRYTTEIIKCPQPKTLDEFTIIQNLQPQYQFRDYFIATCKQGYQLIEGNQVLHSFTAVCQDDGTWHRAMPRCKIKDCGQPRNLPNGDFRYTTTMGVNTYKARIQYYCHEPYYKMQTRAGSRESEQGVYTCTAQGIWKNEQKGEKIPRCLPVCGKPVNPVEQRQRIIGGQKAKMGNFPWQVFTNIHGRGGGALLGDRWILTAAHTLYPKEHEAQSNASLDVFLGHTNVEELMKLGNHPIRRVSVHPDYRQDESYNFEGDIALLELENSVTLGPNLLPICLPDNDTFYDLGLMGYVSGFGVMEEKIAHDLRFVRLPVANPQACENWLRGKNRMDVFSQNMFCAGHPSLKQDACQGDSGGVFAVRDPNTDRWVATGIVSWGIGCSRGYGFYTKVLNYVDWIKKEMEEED
Kind of test: anti-complement (anti-C1 esterase) activity, C1r hydrolysis of AAME (acetyl-arginine methyl ester). The following applies: for inhibition at 10 µM: read-out: Clr: percentage inhibition.

The next test concerns the target plasmin (Homo sapiens, UniProt P00747). Kind of test: anti-plasmin activity, hydrolysis of TAME (tosylarginine methyl ester). How it is done:
as §1

For the next test, the target named is T3, C1s (Homo sapiens, UniProt P09871).
T3 sequence (P09871 16-688): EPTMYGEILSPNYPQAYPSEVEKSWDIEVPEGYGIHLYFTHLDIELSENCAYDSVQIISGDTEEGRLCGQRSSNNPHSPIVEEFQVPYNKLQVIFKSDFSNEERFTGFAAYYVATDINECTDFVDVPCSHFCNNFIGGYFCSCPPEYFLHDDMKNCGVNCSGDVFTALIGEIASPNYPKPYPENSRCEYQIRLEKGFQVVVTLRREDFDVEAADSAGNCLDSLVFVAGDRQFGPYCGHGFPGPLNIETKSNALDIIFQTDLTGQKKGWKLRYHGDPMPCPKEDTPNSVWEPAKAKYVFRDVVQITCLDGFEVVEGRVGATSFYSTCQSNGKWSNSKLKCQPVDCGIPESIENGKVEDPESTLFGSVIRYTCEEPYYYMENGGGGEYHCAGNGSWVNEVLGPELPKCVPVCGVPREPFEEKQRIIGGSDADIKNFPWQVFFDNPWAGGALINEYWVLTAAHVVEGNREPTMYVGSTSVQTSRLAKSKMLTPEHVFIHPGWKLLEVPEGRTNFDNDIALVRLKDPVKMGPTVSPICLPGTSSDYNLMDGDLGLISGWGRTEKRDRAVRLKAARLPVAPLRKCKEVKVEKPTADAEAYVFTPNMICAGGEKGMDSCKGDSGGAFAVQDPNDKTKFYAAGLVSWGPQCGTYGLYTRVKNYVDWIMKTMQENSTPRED
Description: anti-complement (anti-C1 esterase) activity, C1s hydrolysis of ATEE (acetyltyrosine ethyl ester). The following applies: for IC50: hydrolysis of ATEE, read-out: Cls: molar concentration inhibiting 50% of C1s activity (IC50).

Setting [1] is: hydrolysis of TAME, read-out: Pla: molar concentration inhibiting 50% of enzyme activity (IC50).
Where [2] appears, read: hydrolysis of TAME, read-out: Try: molar concentration inhibiting 50% of enzyme activity (IC50).
[3] abbreviates: hydrolysis of AAME, read-out: Clr: molar concentration inhibiting 50% of C1r activity (IC50).

Where a name gives a salt, the structure may show the parent alone. Read-outs that look alike come from different tables or passages of the source.

plasmin, sequence (P00747 581-810 limits assumed, species assumed): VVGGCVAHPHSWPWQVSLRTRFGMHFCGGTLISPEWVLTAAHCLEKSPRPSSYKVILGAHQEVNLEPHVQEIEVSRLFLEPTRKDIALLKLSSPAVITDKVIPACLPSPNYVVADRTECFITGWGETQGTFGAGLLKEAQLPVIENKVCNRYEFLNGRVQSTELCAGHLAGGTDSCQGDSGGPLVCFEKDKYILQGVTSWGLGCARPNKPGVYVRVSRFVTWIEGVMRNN
plasmin, sequence (P00747 97-580 partner limits assumed, species assumed): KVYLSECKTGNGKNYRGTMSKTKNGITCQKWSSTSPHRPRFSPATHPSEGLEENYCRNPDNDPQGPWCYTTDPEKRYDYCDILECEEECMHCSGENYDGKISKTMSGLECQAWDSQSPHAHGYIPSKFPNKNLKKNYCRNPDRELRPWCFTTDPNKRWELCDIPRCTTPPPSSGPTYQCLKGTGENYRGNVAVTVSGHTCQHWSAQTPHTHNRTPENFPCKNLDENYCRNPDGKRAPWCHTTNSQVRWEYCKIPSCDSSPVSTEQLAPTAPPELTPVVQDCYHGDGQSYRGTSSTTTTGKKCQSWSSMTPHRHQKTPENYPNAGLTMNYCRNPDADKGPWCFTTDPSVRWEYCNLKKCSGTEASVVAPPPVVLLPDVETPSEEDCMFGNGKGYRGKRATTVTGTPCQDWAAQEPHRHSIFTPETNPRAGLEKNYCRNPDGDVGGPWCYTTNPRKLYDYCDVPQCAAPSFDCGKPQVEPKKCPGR
Description for C1s: The anti-C1 esterase (C1r, C1s) activity was determined according to the method of Okamura et al. (Biochem. Biophys. Acta (1973), volume 295, pages 252-257). […] The values for C1s represent molar concentrations (IC50) of test compounds which inhibit 50% of the activity of C1s to hydrolyze ATEE (acetyltyrosine ethyl ester).

Turning to `Cl.N=C(N)c1ccc2cc(OC(=O)c3ccc(CNC(=O)c4ccc(C(=O)O)cc4)o3)ccc2c1` [Example 3, 6-Amidino-2-naphthyl 5-(4-carboxybenzoylaminomethyl)furan-2-carboxylate hydrochloride], in the test with kallikrein, the “Kal: percentage inhibition” value was determined as 33%. Besides, the inhibition – broadly, the change of the read-out against control, counted positive when it falls – at 10 µM on trypsin (read-out: Try: percentage inhibition) was determined as 48%; on thrombin, 26%; on C1r, 34%. Further, the IC50 at plasmin (setting [1]) worked out at 8600 nM; at C1s it was 3400 nM.
As to `N=C(N)c1ccc2cc(OC(=O)c3ccc(CNC(=O)c4ccc(CCC(=O)O)cc4)o3)ccc2c1` [Example 9, 6-Amidino-2-naphthyl 5-[4-(2-carboxyethyl)benzoylaminomethyl]furan-2-carboxylate hydrochloride], the IC50 in the test with kallikrein was 6000 nM; at trypsin (setting [2]), 4800 nM; at thrombin, 650 nM; on C1r (setting [3]), 2800 nM; on plasmin (setting [1]) it was 500 nM; at C1s, 2300 nM.
Consider `Cl.N=C(N)c1ccc2cc(OC(=O)c3ccc(CNC(=O)c4ccc(C=CC(=O)O)cc4)o3)ccc2c1` [Example 2, 6-Amidino-2-naphthyl 5-[4-(2-carboxyvinyl)benzoylaminomethyl]furan-2-carboxylate hydrochloride], for which, in the test on kallikrein, the “Kal: percentage inhibition” value amounted to 46%. Besides, the figures for the IC50 on trypsin (setting [2]) and at plasmin (setting [1]) were 8400 nM and 4800 nM, respectively. Further, the inhibition at 10 µM at thrombin was 47%; on C1r (at a concentration of 1 × 10^-5 M), 29%; at C1s (read-out: Cls: percentage inhibition), 17%.
Take `Cc1oc(=O)oc1COC(=O)CCC(=O)NCc1ccc(C(=O)Oc2ccc3cc(C(=N)N)ccc3c2)o1` [Example 33, 6-Amidino-2-naphthyl 5-{[3-(4-methyl-1,3-dioxole-2-one-5-yl)methoxycarbonyl]propionylaminomethyl}furan-2-carboxylate hydrochloride]: the IC50 was 580 nM in the test on kallikrein; 6600 nM on trypsin (setting [2]); 23 nM at thrombin; 140 nM at C1r (setting [3]); 84 nM on plasmin (setting [1]); 220 nM on C1s.
For the compound `N=C(N)c1ccc2cc(OC(=O)c3ccc(CNC(=O)CCC(=O)O)o3)ccc2c1` [Example 21, 6-amidino-2-naphthyl 5-(3-carboxypropionylaminomethyl)furan-2-carboxylate hydrochloride], the IC50 with kallikrein was found to be 700 nM; on trypsin (setting [2]), 310 nM; on thrombin, 960 nM; on C1r (setting [3]), 540 nM; on plasmin (setting [1]), 330 nM; on C1s, 180 nM.
On to `N=C(N)c1ccc2cc(OC(=O)c3ccc(CNC(=O)/C=C\C(=O)O)o3)ccc2c1` [Example 12, 6-Amidino-2-naphthyl 5-(cis-2-carboxyvinyl)carbonylaminomethylfuran-2-carboxylate methanesulfonate], for which the IC50 in the test on kallikrein came to 770 nM; at trypsin (setting [2]), 480 nM; at thrombin, 600 nM; at C1r (setting [3]), 2800 nM; at plasmin (setting [1]), 270 nM; on C1s, 210 nM.
Regarding `N=C(N)c1ccc2cc(OC(=O)c3ccc(CNC(=O)C=Cc4ccc(C(=O)O)cc4)o3)ccc2c1` [Example 8, 6-Amidino-2-naphthyl 5-(4-carboxycinnamoylaminomethyl)furan-2-carboxylate hydrochloride], the IC50 in the test on kallikrein is 2700 nM; on trypsin (setting [2]), 2100 nM; on thrombin it was 1400 nM; at C1r (setting [3]), 830 nM; at plasmin (setting [1]) it was 1100 nM; on C1s, 2000 nM.
As for `CC(C)(C)OC(=O)C=Cc1ccc(C(=O)NCc2ccc(C(=O)Oc3ccc4cc(C(=N)N)ccc4c3)o2)cc1` [Example 1, 6-Amidino-2-naphthyl 5-[4-(2-t-butoxycarbonylvinyl)benzoylaminomethyl]furan-2-carboxylate hydrobromide], the IC50 with kallikrein came to 470 nM; at trypsin, 350 nM; at thrombin it was 350 nM; on C1r (setting [3]), 340 nM; on plasmin (setting [1]), 150 nM; at C1s, 270 nM.
For the compound `CC(C)(C)OC(=O)CCC(=O)NCc1ccc(C(=O)Oc2ccc3cc(C(=N)N)ccc3c2)o1` [Example 18, 6-amidino-2-naphthyl 5-(3-t-butoxycarbonylpropionylaminomethyl)furan-2-carboxylate hydrochloride], the IC50 in the test with kallikrein was determined as 210 nM; on trypsin (setting [2]) it was 400 nM; at thrombin it was 350 nM; on C1r (setting [3]), 340 nM; against plasmin, 190 nM; at C1s, 190 nM.
Turning to `N=C(N)c1ccc2cc(OC(=O)c3ccc(CNC(=O)[C@H]4CC[C@@H](C(=O)O)CC4)o3)ccc2c1` [Example 10, 6-Amidino-2-naphthyl 5-(cis-4-carboxy-1-cyclohexanoylaminomethyl)furan-2-carboxylate hydrochloride], the IC50 was found to be 250 nM in the test on kallikrein; 600 nM on trypsin (setting [2]); 1600 nM on thrombin; 160 nM at C1r; 150 nM on plasmin (setting [1]); 26 nM at C1s.
For `CC(C)(C)OC(=O)CC(=O)NCc1ccc(C(=O)Oc2ccc3cc(C(=N)N)ccc3c2)o1` [Example 15, 6-Amidino-2-naphthyl 5-t-butoxymalonylaminomethylfuran-2-carboxylate hydrochloride], the IC50 with kallikrein came out at 320 nM; on trypsin (setting [2]) it was 710 nM; at thrombin, 400 nM; at C1r (setting [3]), 840 nM; on plasmin (setting [1]), 310 nM; on C1s it was 230 nM.
Take `N=C(N)c1ccc2cc(OC(=O)c3ccc(CNC(=O)C(=O)O)o3)ccc2c1` [Example 16, 6-Amidino-2-naphthyl 5-oxaloaminomethylfuran-2-carboxylate hydrochloride]: the IC50 in the test on kallikrein worked out at 3800 nM; on trypsin (setting [2]), 340 nM; on thrombin, 1300 nM; at C1r (setting [3]) it was 6900 nM; on plasmin (setting [1]) it was 240 nM; on C1s it was 350 nM.
Regarding `CC(C)(C)OC(=O)CCCC(=O)NCc1ccc(C(=O)Oc2ccc3cc(C(=N)N)ccc3c2)o1` [Example 19, 6-Amidino-2-naphthyl 5-(4-t-butoxycarbonyl-butyrylaminomethyl)furan-2-carboxylate hydrochloride], the IC50 in the test on kallikrein stood at 250 nM; at trypsin (setting [2]), 250 nM; at thrombin it was 360 nM; on C1r (setting [3]) it was 1800 nM; on plasmin (setting [1]), 170 nM; on C1s, 720 nM.
